Assay results from patent US10196390B2, “TYK2 inhibitors and uses thereof” (Nimbus Lakshmi, Inc., priority 2014, dated 2019).

Legend:
JAK2 = JAK2 (Homo sapiens (Human), UniProt O60674); test: JAK2 activity inhibition assay (radioactive kinase assay / Caliper assay); type: biochemical; details: read-out: JAK2 Ki
How it was run: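 Reaction ran 25 min at 28° C after adding peptide/ATP mix (10 mM MgCl2) to compound and enzyme in HEPES pH 7.5 buffer with Brij-35, Triton and EGTA. EDTA stop, then microfluidic off-chip separation quantified phosphorylated peptide.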

TYK2 = TYK2 (Homo sapiens (Human), UniProt P29597); test: Tyk2 activity inhibition assay (radioactive kinase assay / Caliper assay); type: biochemical
TYK2, sequence (P29597 whole entry): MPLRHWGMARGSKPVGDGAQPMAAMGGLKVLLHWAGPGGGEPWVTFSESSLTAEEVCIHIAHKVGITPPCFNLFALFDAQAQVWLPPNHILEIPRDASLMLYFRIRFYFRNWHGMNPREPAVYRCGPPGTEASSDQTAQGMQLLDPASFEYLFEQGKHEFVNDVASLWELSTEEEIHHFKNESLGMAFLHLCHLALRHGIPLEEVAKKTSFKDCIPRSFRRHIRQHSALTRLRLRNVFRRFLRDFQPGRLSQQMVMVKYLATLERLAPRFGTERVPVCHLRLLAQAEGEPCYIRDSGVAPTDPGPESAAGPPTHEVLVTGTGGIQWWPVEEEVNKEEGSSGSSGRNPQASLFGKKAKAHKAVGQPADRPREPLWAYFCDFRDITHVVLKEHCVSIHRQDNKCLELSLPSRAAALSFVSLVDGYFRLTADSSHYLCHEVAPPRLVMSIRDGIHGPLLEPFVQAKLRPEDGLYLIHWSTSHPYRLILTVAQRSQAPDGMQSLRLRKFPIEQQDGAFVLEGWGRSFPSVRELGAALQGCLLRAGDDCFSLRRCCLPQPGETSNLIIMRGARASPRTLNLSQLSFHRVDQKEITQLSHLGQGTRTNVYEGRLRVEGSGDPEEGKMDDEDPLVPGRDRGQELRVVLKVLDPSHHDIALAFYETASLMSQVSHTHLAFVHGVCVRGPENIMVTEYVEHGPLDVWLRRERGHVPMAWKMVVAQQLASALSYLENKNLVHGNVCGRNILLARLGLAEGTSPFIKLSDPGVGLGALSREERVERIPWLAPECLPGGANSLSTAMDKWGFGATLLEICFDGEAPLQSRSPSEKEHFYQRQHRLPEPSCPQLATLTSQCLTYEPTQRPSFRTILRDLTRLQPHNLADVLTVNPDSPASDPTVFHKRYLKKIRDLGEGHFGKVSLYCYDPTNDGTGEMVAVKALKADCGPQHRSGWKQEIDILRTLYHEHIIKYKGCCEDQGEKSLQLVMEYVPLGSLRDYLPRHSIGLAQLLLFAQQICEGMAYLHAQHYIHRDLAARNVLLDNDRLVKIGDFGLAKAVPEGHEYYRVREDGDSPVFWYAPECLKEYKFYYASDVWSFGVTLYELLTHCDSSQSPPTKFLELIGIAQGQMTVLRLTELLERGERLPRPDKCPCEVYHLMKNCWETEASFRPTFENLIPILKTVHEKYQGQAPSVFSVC
How it was run: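 Two formats were used. Caliper off-chip mobility shift read phosphorylated peptide 30 (3 uM) after 25 min at 28° C with 9.75 nM TYK2 and ATP at 16 uM or 1 mM. Radioactive assay: 10 μM 33P-ATP, 20 μM peptide, 120 min room temp, P81 filter counting.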

JAK2, sequence (O60674 whole entry): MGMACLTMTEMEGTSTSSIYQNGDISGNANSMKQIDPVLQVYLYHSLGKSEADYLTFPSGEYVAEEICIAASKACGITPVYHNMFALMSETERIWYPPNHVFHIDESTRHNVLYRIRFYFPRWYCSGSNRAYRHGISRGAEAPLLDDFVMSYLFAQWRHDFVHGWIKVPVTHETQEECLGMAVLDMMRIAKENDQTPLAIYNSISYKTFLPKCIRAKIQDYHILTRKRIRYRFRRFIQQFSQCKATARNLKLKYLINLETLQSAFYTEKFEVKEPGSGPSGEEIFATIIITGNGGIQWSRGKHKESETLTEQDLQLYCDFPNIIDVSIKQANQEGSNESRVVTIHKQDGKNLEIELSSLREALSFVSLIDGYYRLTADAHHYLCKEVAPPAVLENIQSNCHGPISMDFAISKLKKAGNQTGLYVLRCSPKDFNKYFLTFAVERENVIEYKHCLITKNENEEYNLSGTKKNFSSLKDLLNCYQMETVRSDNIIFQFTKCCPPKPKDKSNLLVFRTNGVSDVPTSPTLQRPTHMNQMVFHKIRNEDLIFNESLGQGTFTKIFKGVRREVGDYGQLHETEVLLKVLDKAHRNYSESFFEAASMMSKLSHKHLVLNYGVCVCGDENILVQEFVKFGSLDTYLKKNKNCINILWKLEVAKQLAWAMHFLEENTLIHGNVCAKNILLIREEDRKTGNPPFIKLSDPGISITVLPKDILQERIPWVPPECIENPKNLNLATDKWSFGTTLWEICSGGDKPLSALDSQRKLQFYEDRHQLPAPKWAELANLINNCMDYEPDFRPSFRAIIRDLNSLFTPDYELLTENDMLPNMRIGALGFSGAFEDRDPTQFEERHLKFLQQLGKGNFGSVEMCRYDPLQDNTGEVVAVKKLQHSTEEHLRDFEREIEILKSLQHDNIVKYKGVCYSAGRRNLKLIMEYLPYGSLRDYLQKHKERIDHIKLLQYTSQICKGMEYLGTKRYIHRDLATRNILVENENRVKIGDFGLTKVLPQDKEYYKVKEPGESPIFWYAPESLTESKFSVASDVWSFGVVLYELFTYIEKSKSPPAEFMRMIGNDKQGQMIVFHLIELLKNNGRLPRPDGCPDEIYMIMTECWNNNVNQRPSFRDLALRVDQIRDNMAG

SMILES | Ki (JAK2) | Ki (TYK2)
O=C(O)Cn1cc(Nc2nc(-c3c(F)cccc3F)nc3c2C(=O)NC3)cn1 [Compound I-71, 2-(4-((2-(2,6-difluorophenyl)-5-oxo-6,7-dihydro-5H-pyrrolo[3,4-d]pyrimidin-4-yl)amino)-1H-pyrazol-1-yl)acetic Acid] | > 1000 nM | 10 to 100 nM
O=C1NCc2nc(-c3c(F)cccc3Cl)cc(Nc3ccc(N4CCCC4)cn3)c21 [Compound I-204, 2-(2-chloro-6-fluorophenyl)-4-((5-(pyrrolidin-1-yl)pyridin-2-yl)amino)-6,7-dihydro-5H-pyrrolo[3,4-b]pyridin-5-one] | > 1000 nM | < 10 nM
O=C1NCc2nc(-c3c(F)cccc3F)nc(Nc3ccc([C@@H]4CCCNC4=O)cc3)c21 [Compound I-155, (S)-2-(2,6-difluorophenyl)-4-((4-(2-oxopiperidin-3-yl)phenyl)-amino)-6,7-dihydro-5H-pyrrolo[3,4-d]pyrimidin-5-one] | 100 to 1000 nM | < 10 nM
O=C1NCc2nc(-c3c(F)cccc3F)nc(Nc3ccc([C@@H]4CCN(CCN5CCOCC5)C4=O)cc3)c21 [Compound I-123, (S)-2-(2,6-difluorophenyl)-4-((4-(1-(2-morpholinoethyl)-2-oxopyrrolidin-3-yl)phenyl)amino)-6,7-dihydro-5H-pyrrolo[3,4-d]pyrimidin-5-one] | 100 to 1000 nM | < 10 nM
O=C1NCc2nc(-c3c(F)cccc3F)nc(Nc3ccc(C4CCN(CCN5CCOCC5)C4=O)cc3)c21 (stereo not shown) [Compound I-121, 2-(2,6-difluorophenyl)-4-((4-(1-(2-morpholinoethyl)-2-oxopyrrolidin-3-yl)phenyl)amino)-6,7-dihydro-5H-pyrrolo[3,4-d]pyrimidin-5-one] | 100 to 1000 nM | < 10 nM
O=C1NCc2nc(-c3c(F)cccc3F)cc(Nc3ccc(N4CCNCC4)cn3)c21 [Compound I-162, 2-(2,6-difluorophenyl)-4-((5-(piperazin-1-yl)pyridin-2-yl)amino)-6,7-dihydro-5H-pyrrolo[3,4-b]pyridin-5-one] | 10 to 100 nM | < 10 nM
O=C(Cc1ccc(Nc2nc(-c3c(F)cccc3F)nc3c2C(=O)NC3)cc1)NC1CC2(CNC2)C1 [Compound I-14, 2-(4-((2-(2,6-difluorophenyl)-5-oxo-6,7-dihydro-5H-pyrrolo[3,4-d]pyrimidin-4-yl)amino)phenyl)-N-(2-azaspiro[3.3]heptan-6-yl)acetamide] | 100 to 1000 nM | < 10 nM
COc1ccc(Nc2nc(N3[C@H](C)CCC[C@@H]3C)nc3c2C(=O)NC3)cc1 [Compound I-183, 2-((2R,6S)-2,6-dimethylpiperidin-1-yl)-4-((4-methoxyphenyl)amino)-6,7-dihydro-5H-pyrrolo[3,4-d]pyrimidin-5-one] | 10 to 100 nM | < 10 nM
O=C1NCc2nc(-c3c(F)cccc3F)cc(Nc3ccc([C@H]4CCNC4=O)cn3)c21 [Compound I-91, (R)-2-(2,6-difluorophenyl)-4-((5-(2-oxopyrrolidin-3-yl)pyridin-2-yl)amino)-6,7-dihydro-5H-pyrrolo[3,4-b]pyridin-5-one] | 10 to 100 nM | < 10 nM
CN1CCN[C@@](C)(c2ccc(Nc3nc(-c4c(F)cccc4F)nc4c3C(=O)NC4)cc2)C1=O [Compound I-217, (S)-2-(2,6-difluorophenyl)-4-((4-(2,4-dimethyl-3-oxopiperazin-2-yl)phenyl)amino)-6,7-dihydro-5H-pyrrolo[3,4-d]pyrimidin-5-one] | 10 to 100 nM | < 10 nM
CC1(C)CC(c2ccc(Nc3nc(-c4c(F)cccc4F)nc4c3C(=O)NC4)cc2)C(=O)N1 (stereo not shown) [Compound I-213, 2-(2,6-difluorophenyl)-4-((4-(5,5-dimethyl-2-oxopyrrolidin-3-yl)phenyl)amino)-6,7-dihydro-5H-pyrrolo[3,4-d]pyrimidin-5-one] | 100 to 1000 nM | < 10 nM
O=C(O)Cc1ccc(Nc2nc(-c3c(F)cccc3F)nc3c2C(=O)NC3)cc1 [Compound I-2, 2-(4-((2-(2,6-difluorophenyl)-5-oxo-6,7-dihydro-5H-pyrrolo[3,4-d]pyrimidin-4-yl)amino)phenyl)acetic Acid] | > 1000 nM | < 10 nM
O=C1NCc2nc(-c3c(F)cccc3F)nc(Nc3ccc(CC(=O)N4CC5(COC5)C4)cc3)c21 [Compound I-62, 2-(2,6-difluorophenyl)-4-((4-(2-oxo-2-(2-oxa-6-azaspiro[3.3]heptan-6-yl)ethyl)phenyl)amino)-6,7-dihydro-5H-pyrrolo[3,4-d]pyrimidin-5-one] | 100 to 1000 nM | < 10 nM
CCOC(=O)Cc1ccc(Nc2nc(-c3c(F)cccc3F)nc3c2C(=O)NC3)cc1 [Compound I-3, ethyl 2-(4-((2-(2,6-difluorophenyl)-5-oxo-6,7-dihydro-5H-pyrrolo[3,4-d]pyrimidin-4-yl)amino)phenyl)acetate] | 100 to 1000 nM | < 10 nM
O=C(O)Cc1ccc(Nc2nc(-c3c(F)cccc3Cl)nc3c2C(=O)NC3)cc1 [Compound I-10, 2-(4-((2-(2-chloro-6-fluorophenyl)-5-oxo-6,7-dihydro-5H-pyrrolo[3,4-d]pyrimidin-4-yl)amino)phenyl)acetic Acid] | 100 to 1000 nM | < 10 nM
O=C(O)Cc1ccc(Nc2nc(-c3c(F)cccc3C(F)(F)F)nc3c2C(=O)NC3)cc1 [Compound I-82, 2-(4-((2-(2-fluoro-6-(trifluoromethyl)phenyl)-5-oxo-6,7-dihydro-5H-pyrrolo[3,4-d]pyrimidin-4-yl)amino)phenyl)acetic Acid] | > 1000 nM | 10 to 100 nM
C[C@@H](CO)NC(=O)Cc1ccc(Nc2nc(-c3c(F)cccc3F)nc3c2C(=O)NC3)cc1 [Compound I-74, (S)-2-(4-((2-(2,6-difluorophenyl)-5-oxo-6,7-dihydro-5H-pyrrolo[3,4-d]pyrimidin-4-yl)amino)phenyl)-N-(1hydroxypropan-2-yl)acetamide] | 100 to 1000 nM | < 10 nM
O=C(NC1CCOCC1)c1ccc(Nc2cc(-c3c(F)cccc3F)nc3c2C(=O)NC3)nc1 [Compound I-139, 6-((2-(2,6-difluorophenyl)-5-oxo-6,7-dihydro-5H-pyrrolo[3,4-b]pyridin-4-yl)amino)-N-(tetrahydro-2H-pyran-4-yl)nicotinamide] | 10 to 100 nM | < 10 nM
CN(C(=O)Cc1ccc(Nc2nc(-c3c(F)cccc3F)nc3c2C(=O)NC3)cc1)C1CCNCC1 [Compound I-22, 2-(4-((2-(2,6-difluorophenyl)-5-oxo-6,7-dihydro-5H-pyrrolo[3,4-d]pyrimidin-4-yl)amino)phenyl)-N-methyl-N-(piperidin-4-yl)acetamide] | 10 to 100 nM | < 10 nM
O=C(NCCO)c1ccc(Nc2cc(-c3c(F)cccc3F)nc3c2C(=O)NC3)nc1 [Compound I-164, 6-((2-(2,6-difluorophenyl)-5-oxo-6,7-dihydro-5H-pyrrolo[3,4-b]pyridin-4-yl)amino)-N-(2-hydroxyethyl)nicotinamide] | 10 to 100 nM | < 10 nM
CCNC(=O)Cc1ccc(Nc2cc(-c3c(F)cccc3Cl)nc3c2C(=O)NC3)nc1 [Compound I-199, 2-(6-((2-(2-chloro-6-fluorophenyl)-5-oxo-6,7-dihydro-5H-pyrrolo[3,4-b]pyridin-4-yl)amino)pyridin-3-yl)-N-ethylacetamide] | 10 to 100 nM | < 10 nM
O=C(O)c1ccc(Nc2nc(-c3c(F)cccc3F)nc3c2C(=O)NC3)cc1 [Compound I-156, 4-((2-(2,6-difluorophenyl)-5-oxo-6,7-dihydro-5H-pyrrolo[3,4-d]pyrimidin-4-yl)amino)benzoicacid] | 100 to 1000 nM | < 10 nM
C[C@@H](O)CNC(=O)Cc1ccc(Nc2nc(-c3c(F)cccc3F)nc3c2C(=O)NC3)cc1 [Compound I-77, (R)-2-(4-((2-(2,6-difluorophenyl)-5-oxo-6,7-dihydro-5H-pyrrolo[3,4-d]pyrimidin-4-yl)amino)phenyl)-N-(2-hydroxy-propyl)acetamide] | 100 to 1000 nM | < 10 nM
O=C(O)Cc1ccc(Nc2nc(-c3c(F)cccc3F)nc3c2C(=O)NC3)cn1 [Compound I-17] | > 1000 nM | 100 to 1000 nM
O=C(O)Cc1ccc(Nc2nc(-c3c(Cl)cccc3Cl)nc3c2C(=O)NC3)cc1 [Compound I-6, 2-(4-((2-(2,6-dichlorophenyl)-5-oxo-6,7-dihydro-5H-pyrrolo[3,4-d]pyrimidin-4-yl)amino)phenyl)acetic Acid] | 100 to 1000 nM | < 10 nM
COC(=O)Cc1ccc(Nc2cc(-c3c(F)cccc3Cl)nc3c2C(=O)NC3)nc1 [Compound I-200, methyl 2-(6-((2-(2-chloro-6-fluorophenyl)-5-oxo-6,7-dihydro-5H-pyrrolo[3,4-b]pyridin-4-yl)amino)pyridin-3-yl)acetate] | 10 to 100 nM | < 10 nM
CC1(c2ccc(Nc3nc(-c4c(F)cccc4F)nc4c3C(=O)NC4)cc2)NC(=O)NC1=O (stereo not shown) [Compound I-172, 5-(4-((2-(2,6-difluorophenyl)-5-oxo-6,7-dihydro-5H-pyrrolo[3,4-d]pyrimidin-4-yl)amino)phenyl)-5-methylimidazolidine-2,4-dione] | 10 to 100 nM | < 10 nM
O=C1NCc2nc(-c3c(F)cccc3F)nc(Nc3ccc(CC(=O)N4CCC[C@@H]4CO)cc3)c21 [Compound I-15, (R)-2-(2,6-difluorophenyl)-4-((4-(2-(2-(hydroxymethyl)pyrrolidin-1-yl)-2-oxoethyl)phenyl)amino)-6,7-dihydro-5H-pyrrolo[3,4-d]pyrimidin-5-one] | 100 to 1000 nM | < 10 nM
C[C@H](CO)NC(=O)Cn1cc(Nc2nc(-c3c(F)cccc3F)nc3c2C(=O)NC3)cn1 [Compound I-70, (R)-2-(4-((2-(2,6-difluorophenyl)-5-oxo-6,7-dihydro-5H-pyrrolo[3,4-d]pyrimidin-4-yl)amino)-1H-pyrazol-1-yl)-N-(1-hydroxypropan-2-yl)acetamide] | > 1000 nM | 10 to 100 nM
